# Earlier results as cited in PubChem BioAssay AID1259409 (Chemical Carcinogenesis Research Information System (CCRIS), 2018).
# Tested on: rodent chemically induced tumor inhibition, incidence and multiplicity
# Assay: CCRIS tumor inhibitor studies
# Conditions: Carcinogen: 4-(METHYLNITROSAMINO)-1-(3-PYRIDYL)-1-BUTANONE, 64091-91-4, Promoter: NONE USED; for tumour outcome (control, treated, inhibition, significance): Dose [Inhibitor]: 0
smiles,measurement,setting,value
S=C=NCCc1ccccc1,"tumour outcome (control, treated, inhibition, significance)","3 UMOL/G OF DIET FOR 112 WK BEGINNING 1 WK PRIOR TO CARCINOGEN TREATMENT (STUDY DURATION: 112 WK), Route [Inhibitor]: ORAL, Species: RAT, Strain/Sex: F344/MALE, Target Tissue: Type of Lesion: PANCREAS (EXOCRINE): MALIGNANT TUMOR, Dose [Carcinogen]: 2 PPM IN DRINKING WATER FOR 111 WK","4/52 (8%), 0/59 (0%), 100%, p=0.005"
same,"tumour outcome (control, treated, inhibition, significance)","5 UMOL 1/D FOR 4 D ADMINISTERED PRIOR TO CARCINOGEN DOSE (STUDY DURATION: 116 D), Route [Inhibitor]: GAVAGE, Species: MOUSE, Strain/Sex: STRAIN-A, Target Tissue: Type of Lesion: LUNG: ADENOMA, Dose [Carcinogen]: 10 UMOL IN SALINE ADMINISTERED 2 HR POST LAST AGENT DOSE","100%, 93%, 7%, not calculated"
same,"tumour outcome (control, treated, inhibition, significance)","5 UMOL 1/D FOR 4 D ADMINISTERED PRIOR TO CARCINOGEN TREATMENT (STUDY DURATION: 116 D), Route [Inhibitor]: GAVAGE, Species: MOUSE, Strain/Sex: STRAIN A, Target Tissue: Type of Lesion: LUNG: ADENOMA, Dose [Carcinogen]: 10 UMOL ONCE 2 HR AFTER FINAL DOSE OF INHIBITOR","100%, 93%, 7%, not significant"
same,"tumour outcome (control, treated, inhibition, significance)","5 UMOL 1/D FOR 4 DAYS ADMINISTERED PRIOR TO CARCINOGEN TREATMENT (STUDY DURATION: 116 D), Route [Inhibitor]: GAVAGE, Species: MOUSE, Strain/Sex: STRAIN-A, Target Tissue: Type of Lesion: LUNG: ADENOMA, Dose [Carcinogen]: 10 UMOL ONCE 2 HR AFTER FINAL DOSE OF INHIBITOR","100%, 89%, 11%, not significant"
same,"tumour outcome (control, treated, inhibition, significance)","5 UMOL/D ADMINISTERED TO MICE HETEROZYGOUS (P53+/-) FOR P53 ALLELES FOR 4 CONSECUTIVE DAYS PRIOR TO CARCINOGEN DOSE (, Route [Inhibitor]: GAVAGE, Species: MOUSE, Strain/Sex: (A/J X TSG-P53)F1/FEMALE, Target Tissue: Type of Lesion: LUNG: ADENOMA, Dose [Carcinogen]: 10 UMOL ONCE","100%, 40%, 60%, p<0.0001"
same,"tumour outcome (control, treated, inhibition, significance)","5 UMOL/D ADMINISTERED TO MICE HOMOZYGOUS (P53+/+) FOR P53 ALLELES FOR 4 CONSECUTIVE DAYS PRIOR TO CARCINOGEN DOSE (ST, Route [Inhibitor]: GAVAGE, Species: MOUSE, Strain/Sex: (A/J X TSG-P53)F1/FEMALE, Target Tissue: Type of Lesion: LUNG: ADENOMA, Dose [Carcinogen]: 10 UMOL ONCE","100%, 36%, 64%, p<0.0001"
same,"tumour outcome (control, treated, inhibition, significance)","5 UMOL/D FOR 4 CONSECUTIVE DAYS (STUDY DURATION: 17 WK), Route [Inhibitor]: GAVAGE, Species: MOUSE, Strain/Sex: STRAIN-A/FEMALE, Target Tissue: Type of Lesion: LUNG: ADENOMA, Dose [Carcinogen]: 10 UMOL ONCE 2 HR POST LAST AGENT DOSE","100%, 89%, 11%, not calculated"
same,"tumour outcome (control, treated, inhibition, significance)","5 UMOL/D FOR 4 CONSECUTIVE DAYS PRIOR TO CARCINOGEN DOSE (STUDY DURATION: 18 WK), Route [Inhibitor]: GAVAGE, Species: MOUSE, Strain/Sex: STRAIN-A/FEMALE, Target Tissue: Type of Lesion: LUNG: ADENOMA, Dose [Carcinogen]: 10 UMOL ONCE","100%, 100%, 0%, not significant"
same,"tumour outcome (control, treated, inhibition, significance)","25 UMOL 1/D FOR 4 D ADMINISTERED PRIOR TO CARCINOGEN TREATMENT (STUDY DURATION: 116 D), Route [Inhibitor]: GAVAGE, Species: MOUSE, Strain/Sex: STRAIN-A, Target Tissue: Type of Lesion: LUNG: ADENOMA, Dose [Carcinogen]: 10 UMOL ONCE 2 HR AFTER FINAL DOSE OF INHIBITOR","100%, 30%, 70%, p<0.01"
same,"tumour outcome (control, treated, inhibition, significance)","25 UMOL/D FOR 4 CONSECUTIVE DAYS (STUDY DURATION: 17 WK), Route [Inhibitor]: GAVAGE, Species: MOUSE, Strain/Sex: STRAIN-A/FEMALE, Target Tissue: Type of Lesion: LUNG: ADENOMA, Dose [Carcinogen]: 10 UMOL ONCE 2 HR POST LAST AGENT DOSE","100%, 30%, 70%, p<0.01"
same,"tumour outcome (control, treated, inhibition, significance)","652 PPM IN DIET FOR 22 WK BEGINNING 1 WK PRIOR TO CARCINOGEN TREATMENT (STUDY DURATION: 98 WK), Route [Inhibitor]: ORAL, Species: RAT, Strain/Sex: F344/MALE, Target Tissue: Type of Lesion: LUNG: TUMOR, Dose [Carcinogen]: 1.5 MG/KG BW 3/WK FOR 20 WK","22/33 (67%), 6/36 (17%), 75%, p<0.001"
same,"tumour outcome (control, treated, inhibition, significance)","652 PPM IN DIET FOR 22 WK BEGINNING 1 WK PRIOR TO CARCINOGEN TREATMENT (STUDY DURATION: 98 WK), Route [Inhibitor]: ORAL, Species: RAT, Strain/Sex: F344/MALE, Target Tissue: Type of Lesion: NASAL CAVITY: TUMOR, Dose [Carcinogen]: 1.5 MG/KG BW 3/WK FOR 20 WK","28/36 (78%), 17/36 (47%), 40%, not significant"
same,"tumour outcome (control, treated, inhibition, significance)","1304 PPM IN DIET FOR 22 WK BEGINNING 1 WK PRIOR TO CARCINOGEN DOSE (STUDY DURATION: 98 WK), Route [Inhibitor]: ORAL, Species: RAT, Strain/Sex: F344/MALE, Target Tissue: Type of Lesion: NASAL CAVITY: TUMOR, Dose [Carcinogen]: 1.5 MG/KG BW 3/WK FOR 20 WK","28/36 (78%), 21/36 (58%), 26%, not significant"
same,"tumour outcome (control, treated, inhibition, significance)","1304 PPM IN DIET FOR 22 WK BEGINNING 1 WK PRIOR TO CARCINOGEN TREATMENT (STUDY DURATION: 98 WK), Route [Inhibitor]: ORAL, Species: RAT, Strain/Sex: F344/MALE, Target Tissue: Type of Lesion: LUNG: TUMOR, Dose [Carcinogen]: 1.5 MG/KG BW 3/WK FOR 20 WK","22/33 (67%), 3/36 (8%), 88%, p<0.0001"
same,outcome,"Dose [Inhibitor]: 3 UMOL/G DIET BEGINNING 1 WK PRIOR TO FIRST CARCINOGEN DOSE (STUDY DURATION: 104 WK), Route [Inhibitor]: ORAL, Species: RAT, Strain/Sex: F344/MALE, Target Tissue: Type of Lesion: ADRENAL GLAND: ADENOMA, Dose [Carcinogen]: 1.76 MG/KG 3/WK FOR 20 WK","0/40 (0%), 2/40 (5%), -5%, not calculated"
